Reference: US20120253470A1, “COMPOSITIONS FOR BONE TISSUE REPAIR AND USES THEREOF” (PRESIDENT AND FELLOWS OF HARVARD COLLEGE, priority 2011, published 2012)

How the values were obtained:
[1] = tested on: segmental femur defect; assay: Repair of long bone (segmental femur) defect in mice; assay type: in vivo, C57/BI/6 wild-type mice
Experimental: (§1) The model animals used in this investigation were 10 week-old, skeletally mature, male C57/BI/6 wild-type mice. Mice are anesthetized by intramuscular injection with ketamine (7.5 mg/100 g body weight and xylazine (5-10 mg/kg body weight). The skin is shaved with an electric device and then scrubbed with a povidone-iodine scrub (e.g., Betadine®) and 70% alcohol, taking care to scrub from the center of the site toward the periphery. The site is then rinsed with 70% alcohol. At least three alternating preparations of germicidal scrub and rinse are performed. Finally, the area is draped with sterile drapes, which not only help to prevent contaminants from entering the surgical field, but also provide a sterile area on which to lay sterile instruments during surgery.
Full-thickness flaps are utilized in order to gain access to the femur. A roughly 5 mm length segmental femur defect is created on the C57/BI/6 mice. Once the defect has been created all mice received cell-free grafts. Control mice received no additional treatment, while the second group of mice received treatment with prom-1 #237. Soft tissues are closed with sutures. After the surgery, the animals are monitored until fully alert and monitoring continues thereafter for any issues related to discomfort, pain or infection. […] Medication to control pain is also delivered right after surgery and if detected subsequently. […] The animal is monitored continuously until it regains sternal recumbence and is capable of holding its head up, and is returned to its regular cage only when it is alert, mobile and breathing normally. […]
(§2) Post-surgical observations include a minimum daily observation, including weekends and holidays, of the condition of the animal and the surgical site. […] Pain/distress is monitored by monitoring the physiological parameters and behavioral responses although distress is more difficult to define and identify than pain. […] The animals are evaluated at day 14 after the creation of the defect to determine the extent of repair and regeneration.

[2] = tested on: craniotomy defect of the calvaria; assay: Repair of calvarial bone defect in mice; assay type: in vivo, C57/BI/6 wild-type mice; details: prom-1 #237 added to composition containing FDBA
Experimental: as §1, with “One of the most common models used to test bone repair methods and compositions is defects in the calvarial bone in a model organism. Mice, rats, and rabbits are all frequently used in this model of flat bone repair. The model” for “The model”, “weight). The calvaria skin is” for “weight). The skin is”
Full-thickness flaps are utilized in order to gain access to the calvaria. […] After the surgery, the animals are monitored until fully alert and monitoring continues thereafter for any issues related to discomfort, pain or infection. […] Medication to control pain is also delivered right after surgery and if detected subsequently. […] The animal is monitored continuously until it regains sternal recumbence and is capable of holding its head up, and is returned to its regular cage only when it is alert, mobile and breathing normally. […]
as §2, with “56” for “14”

[3] = femur defect with cell-free graft, day 14

DRVQRQTTTVVA (SEQ ID NO: 35) [prom-1 #237]
ability of existing mouse cells to colonize the scaffold material and repair a large defect in the long bone [1, 3]: greatly increased | total extent of recovery [1, 3]: markedly improved | new bone growth / callus formation at the defect (FIG. 1B) ([1]; roughly 5 mm segmental femur defect, given in addition to cell-free graft, evaluated at day 14, versus graft only): significant callus formation | time to recovery [2]: significantly reduced | ability of existing mouse cells to colonize the FDBA scaffold material and repair a large defect in the calvarial flat bone ([2]; day 56): greatly increases | total extent of recovery ([2]; day 56): markedly improved
